PubChem BioAssay (NCI)
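48-hour exposure; five concentrations; linearly interpolated endpoints. Abbreviation: GI50, concentration required for 50% inhibition of growth. TGI: total growth inhibition.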

What was measured:
Experiment in all cases: growth of human tumour cells (NCI), 48 h
786-0 renal = test system: 786-0 renal
A498 renal = test system: A498 renal
A549 NSCLC = test system: A549 NSCLC
ACHN renal = test system: ACHN renal
BT-549 breast = test system: BT-549 breast
CAKI-1 renal = test system: CAKI-1 renal
CCRF-CEM leukemia = test system: CCRF-CEM leukemia
COLO 205 colon = test system: COLO 205 colon
DU-145 prostate = test system: DU-145 prostate
EKVX NSCLC = test system: EKVX NSCLC
HCC-2998 colon = test system: HCC-2998 colon
HCT-116 colon = test system: HCT-116 colon
HCT-15 colon = test system: HCT-15 colon
HL-60(TB) leukemia = test system: HL-60(TB) leukemia
HOP-62 NSCLC = test system: HOP-62 NSCLC
HOP-92 NSCLC = test system: HOP-92 NSCLC
HS 578T breast = test system: HS 578T breast
HT29 colon = test system: HT29 colon
IGROV1 ovarian = test system: IGROV1 ovarian
K-562 leukemia = test system: K-562 leukemia
KM12 colon = test system: KM12 colon
LOX IMVI melanoma = test system: LOX IMVI melanoma
M14 melanoma = test system: M14 melanoma
MALME-3M melanoma = test system: MALME-3M melanoma
MCF7 breast = test system: MCF7 breast
MDA-MB-231 breast = test system: MDA-MB-231 breast
MDA-MB-435 = test system: MDA-MB-435
MOLT-4 leukemia = test system: MOLT-4 leukemia
NCI-H226 lung = test system: NCI-H226 lung
NCI-H23 lung = test system: NCI-H23 lung
NCI-H460 lung = test system: NCI-H460 lung
NCI-H522 lung = test system: NCI-H522 lung
NCI/ADR-RES ovarian = test system: NCI/ADR-RES ovarian
OVCAR-3 ovarian = test system: OVCAR-3 ovarian
OVCAR-4 ovarian = test system: OVCAR-4 ovarian
OVCAR-5 ovarian = test system: OVCAR-5 ovarian
OVCAR-8 ovarian = test system: OVCAR-8 ovarian
PC-3 prostate = test system: PC-3 prostate
RXF 393 renal = test system: RXF 393 renal
SF-268 CNS = test system: SF-268 CNS
SF-295 CNS = test system: SF-295 CNS
SF-539 CNS = test system: SF-539 CNS
SK-MEL-2 melanoma = test system: SK-MEL-2 melanoma
SK-MEL-28 melanoma = test system: SK-MEL-28 melanoma
SK-MEL-5 melanoma = test system: SK-MEL-5 melanoma
SK-OV-3 ovarian = test system: SK-OV-3 ovarian
SN12C renal = test system: SN12C renal
SNB-19 CNS = test system: SNB-19 CNS
SNB-75 CNS = test system: SNB-75 CNS
SW-620 colon = test system: SW-620 colon
T-47D breast = test system: T-47D breast
TK-10 renal = test system: TK-10 renal
U251 CNS = test system: U251 CNS
UACC-257 melanoma = test system: UACC-257 melanoma
UACC-62 melanoma = test system: UACC-62 melanoma
UO-31 renal = test system: UO-31 renal

For `O=C(Nc1ccc2ncnc(Nc3ccc(Oc4cccc(F)c4)c(Cl)c3)c2c1)c1ccc(CN2CCOCC2)cc1`, the GI50 (786-0 renal) was 1.97 µM, the TGI (786-0 renal) was 4.33 µM and the GI50 (A498 renal) was 3.28 µM. The TGI (A498 renal) was 65.6 µM, the GI50 (A549 NSCLC) was 2.35 µM and the TGI (A549 NSCLC) was 10.3 µM. The GI50 (ACHN renal) was 2.26 µM, the TGI (ACHN renal) was 9.55 µM and the GI50 (BT-549 breast) was 2.3 µM. It also gave a TGI (BT-549 breast) of 7.56 µM, a GI50 (CAKI-1 renal) of 2.18 µM and a TGI (CAKI-1 renal) of 10.5 µM. It also gave a GI50 (CCRF-CEM leukemia) of 2.95 µM, a TGI (CCRF-CEM leukemia) of 20.7 µM and a GI50 (COLO 205 colon) of 2.56 µM. For the same compound, the TGI (COLO 205 colon) was 8.34 µM, the GI50 (DU-145 prostate) was 3.14 µM and the TGI (DU-145 prostate) was 15.8 µM. It also gave a GI50 (EKVX NSCLC) of 1.86 µM, a TGI (EKVX NSCLC) of 38.2 µM and a GI50 (HCC-2998 colon) of 3.14 µM. For the same compound, the TGI (HCC-2998 colon) was 18.6 µM, the GI50 (HCT-116 colon) was 2.55 µM and the TGI (HCT-116 colon) was 8.94 µM. The GI50 (HCT-15 colon) was 2.49 µM, the TGI (HCT-15 colon) was 8.85 µM and the GI50 (HL-60(TB) leukemia) was 2.69 µM. For the same compound, the TGI (HL-60(TB) leukemia) was 7.88 µM, the GI50 (HOP-62 NSCLC) was 2.58 µM and the TGI (HOP-62 NSCLC) was 8.47 µM. The GI50 (HOP-92 NSCLC) was 2.38 µM, the TGI (HOP-92 NSCLC) was 15.4 µM and the GI50 (HS 578T breast) was 1.96 µM. It also gave a TGI (HS 578T breast) of 7.04 µM, a GI50 (HT29 colon) of 2.97 µM and a TGI (HT29 colon) of 11.7 µM. The GI50 (IGROV1 ovarian) was 1.4 µM, the TGI (IGROV1 ovarian) was 5.5 µM and the GI50 (K-562 leukemia) was 2.47 µM. The TGI (K-562 leukemia) was 11.7 µM, the GI50 (KM12 colon) was 2.57 µM and the TGI (KM12 colon) was 7.66 µM. For the same compound, the GI50 (LOX IMVI melanoma) was 2.24 µM, the TGI (LOX IMVI melanoma) was 5.33 µM and the GI50 (M14 melanoma) was 2.03 µM. For the same compound, the TGI (M14 melanoma) was 4.68 µM, the GI50 (MALME-3M melanoma) was 2.01 µM and the TGI (MALME-3M melanoma) was 5.2 µM. For the same compound, the GI50 (MCF7 breast) was 1.83 µM, the TGI (MCF7 breast) was 5.64 µM and the GI50 (MDA-MB-231 breast) was 2.68 µM. It also gave a TGI (MDA-MB-231 breast) of 9.03 µM, a GI50 (MDA-MB-435) of 2.18 µM and a TGI (MDA-MB-435) of 5.39 µM. The GI50 (MOLT-4 leukemia) was 1.8 µM, the TGI (MOLT-4 leukemia) was 4.98 µM and the GI50 (NCI-H226 lung) was 5.12 µM. The TGI (NCI-H226 lung) was 33.7 µM, the GI50 (NCI-H23 lung) was 2.09 µM and the TGI (NCI-H23 lung) was 5.89 µM. It also gave a GI50 (NCI-H460 lung) of 2.39 µM, a TGI (NCI-H460 lung) of 6.39 µM and a GI50 (NCI-H522 lung) of 0.654 µM. The TGI (NCI-H522 lung) was 4.01 µM, the GI50 (NCI/ADR-RES ovarian) was 2.33 µM and the TGI (NCI/ADR-RES ovarian) was 7.16 µM. The GI50 (OVCAR-3 ovarian) was 2.16 µM, the TGI (OVCAR-3 ovarian) was 7 µM and the GI50 (OVCAR-4 ovarian) was 2.53 µM. The TGI (OVCAR-4 ovarian) was 8.52 µM, the GI50 (OVCAR-5 ovarian) was 4.5 µM and the TGI (OVCAR-5 ovarian) was 23.4 µM. It also gave a GI50 (OVCAR-8 ovarian) of 2.34 µM, a TGI (OVCAR-8 ovarian) of 7.69 µM and a GI50 (PC-3 prostate) of 2.24 µM. For the same compound, the TGI (PC-3 prostate) was 10.6 µM, the GI50 (RXF 393 renal) was 2.02 µM and the TGI (RXF 393 renal) was 5.83 µM. The GI50 (SF-268 CNS) was 2.6 µM, the TGI (SF-268 CNS) was 18.1 µM and the GI50 (SF-295 CNS) was 2.66 µM. It also gave a TGI (SF-295 CNS) of 10.3 µM, a GI50 (SF-539 CNS) of 2.51 µM and a TGI (SF-539 CNS) of 6.99 µM. It also gave a GI50 (SK-MEL-2 melanoma) of 2.27 µM, a TGI (SK-MEL-2 melanoma) of 5.46 µM and a GI50 (SK-MEL-28 melanoma) of 2.62 µM. For the same compound, the TGI (SK-MEL-28 melanoma) was 9.38 µM, the GI50 (SK-MEL-5 melanoma) was 1.74 µM and the TGI (SK-MEL-5 melanoma) was 3.25 µM. For the same compound, the GI50 (SK-OV-3 ovarian) was 1.66 µM, the TGI (SK-OV-3 ovarian) was over 100 µM and the GI50 (SN12C renal) was 2.6 µM. For the same compound, the TGI (SN12C renal) was over 100 µM, the GI50 (SNB-19 CNS) was 3.53 µM and the TGI (SNB-19 CNS) was over 100 µM. For the same compound, the GI50 (SNB-75 CNS) was 1.97 µM, the TGI (SNB-75 CNS) was 9.22 µM and the GI50 (SW-620 colon) was 3.21 µM. It also gave a TGI (SW-620 colon) of 11.2 µM, a GI50 (T-47D breast) of 1.09 µM and a TGI (T-47D breast) of 4.2 µM. The GI50 (TK-10 renal) was 3.08 µM, the TGI (TK-10 renal) was 13.5 µM and the GI50 (U251 CNS) was 2.96 µM. It also gave a TGI (U251 CNS) of 17.7 µM, a GI50 (UACC-257 melanoma) of 2.36 µM and a TGI (UACC-257 melanoma) of 7.1 µM. For the same compound, the GI50 (UACC-62 melanoma) was 1.78 µM, the TGI (UACC-62 melanoma) was 3.43 µM and the GI50 (UO-31 renal) was 1.81 µM. It also gave a TGI (UO-31 renal) of 8.59 µM.
